Laboratory results as given in patent US12522599B2, “Crystal forms of acrylic acid derivatives, preparation method therefor and use thereof” (ZHEJIANG HISUN PHARMACEUTICAL CO., LTD., priority 2019, dated 2026).

Columns and labels:
[1] = Stability experiment (75% RH, 92.5% RH, 40° C., 60° C. and light for 10 days; XRPD pattern and purity); type: physicochemical; details: for stability (in words): 60° C. and light for 10 days
Protocol: X-ray powder diffraction instrument and test conditions involved in the present disclosure: the model of the X-ray diffraction instrument was Rigaku D/max-2200 Cu target; the operation method included a scanning speed of 10°/min and scanning step width of 0.01°.
High-performance liquid chromatography (HPLC) test conditions involved in the present disclosure: the model of the liquid chromatograph was Agilent 1260; the chromatographic column was Agilent Eclipse XDB C-18 250 mm*4.6 mm Sum; the detection wavelength was 280 nm; and the column temperature was 35° C.
The amorphous form of compound of formula I prepared in Preparation Example, the crystal form A of the compound of formula I prepared in Example 1, the crystal form B of the compound of formula I prepared in Example 7, and the crystal form C of the compound of formula I prepared in Example 11 were placed in 75% RH, 92.5% RH, 40° C., 60° C. and light for 10 days respectively, and the X-ray powder diffraction pattern and purity of each crystal form were measured.

[2] = Granularity experiment; type: physicochemical
Protocol: (§1) The amorphous form of compound of formula I prepared in Preparation Example, the crystal form A of the compound of formula I prepared in Example 1, the crystal form B of the compound of formula I prepared in Example 7, and the crystal form C of the compound of formula I prepared in Example 11 were measured for granularity, and the specific results are shown in the following table: […]

[3] = Flowability test (angle of repose); type: physicochemical
Protocol: as §1, with “angle of repose,” for “granularity,”

[4] = biological target: T1, ERα (Homo sapiens, UniProt P03372); details: as indicated in WO2017080338A1; cited from earlier work
T1 sequence (P03372 1-595): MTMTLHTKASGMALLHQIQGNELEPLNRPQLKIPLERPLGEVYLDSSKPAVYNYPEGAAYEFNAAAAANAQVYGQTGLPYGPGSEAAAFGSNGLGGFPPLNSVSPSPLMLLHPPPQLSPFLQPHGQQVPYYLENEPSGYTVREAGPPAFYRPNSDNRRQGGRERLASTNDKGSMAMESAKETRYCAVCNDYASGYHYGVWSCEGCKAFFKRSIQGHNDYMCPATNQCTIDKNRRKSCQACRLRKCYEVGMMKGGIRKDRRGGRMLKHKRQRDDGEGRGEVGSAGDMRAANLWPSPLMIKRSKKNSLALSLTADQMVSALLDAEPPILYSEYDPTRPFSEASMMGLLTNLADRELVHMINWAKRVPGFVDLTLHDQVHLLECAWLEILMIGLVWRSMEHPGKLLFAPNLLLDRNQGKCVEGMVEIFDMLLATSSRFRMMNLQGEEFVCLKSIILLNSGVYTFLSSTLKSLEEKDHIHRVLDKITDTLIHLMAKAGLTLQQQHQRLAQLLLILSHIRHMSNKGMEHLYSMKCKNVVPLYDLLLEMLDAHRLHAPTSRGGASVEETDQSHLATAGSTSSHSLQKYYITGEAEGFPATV

[5] = compared with crystal forms A, B and C

Row | Structure (SMILES) | Purity % ([1]; 0 day) [%] | Purity % ([1]; 40° C., 10 days) [%] | Purity % ([1]; 60° C., 10 days) [%] | stability (in words) ([1]; 75% RH, 92.5% RH, 40° C.) | Purity % ([1]; 75% RH, 10 days) [%] | Purity % ([1]; 92.5% RH, 10 days) [%] | Purity % ([1]; Light, 10 days) [%] | D50 ([2]; granularity) [μm] | D90 ([2]; granularity) [μm] | angle of repose ([3]; measurement 1) [°] | angle of repose ([3]; measurement 2) [°] | angle of repose ([3]; measurement 3) [°] | granularity ([2]; granularity, second column under amorphous form) [μm] | granularity (in words) [2, 5] | angle of repose (in words) [3, 5] | effect of down-regulating ERα [4]
1 | C[C@@H]1Cc2c([nH]c3ccccc23)[C@@H](c2c(F)cc(/C=C/C(=O)O)cc2F)N1CC1(F)CC1 [crystal form A, (E)-3-(3,5-difluoro-4-((1R,3R)-2-((1-fluorocyclopropyl)methyl)-3-methyl-2,3,4,9-tetrahydro-1H-pyrido[3,4-b]indol-1-yl)phenyl)acrylic acid] | 99.33 | 99.27 | 99.22 | good stability | 99.31 | 99.34 | 99.27 | 16.37 | 61.86 | 30.6 | 29.6 | 30.5 | – | – | – | –
2 | C[C@@H]1Cc2c([nH]c3ccccc23)[C@@H](c2c(F)cc(/C=C/C(=O)O)cc2F)N1CC1(F)CC1 [amorphous form, (E)-3-(3,5-difluoro-4-((1R,3R)-2-((1-fluorocyclopropyl)methyl)-3-methyl-2,3,4,9-tetrahydro-1H-pyrido[3,4-b]indol-1-yl)phenyl)acrylic acid] | 95.82 | 95.80 | 95.67 | – | 96.22 | 96.57 | 95.55 | 3.02 | – | 43.2 | 41.9 | 42.5 | 23.01 | significantly smaller than that of the crystal forms A, B, and C | significantly larger than that of the crystal forms A, B and C | –
3 | C[C@@H]1Cc2c([nH]c3ccccc23)[C@@H](c2c(F)cc(/C=C/C(=O)O)cc2F)N1CC1(F)CC1 [compound of formula I, (E)-3-(3,5-difluoro-4-((1R,3R)-2-((1-fluorocyclopropyl)methyl)-3-methyl-2,3,4,9-tetrahydro-1H-pyrido[3,4-b]indol-1-yl)phenyl)acrylic acid] | – | – | – | – | – | – | – | – | – | – | – | – | – | – | – | good effect of down-regulating ERα

More lines, main results first:

Row | Purity % ([1]; 0 day) [%] | Purity % ([1]; 40° C., 10 days) [%] | Purity % ([1]; 60° C., 10 days) [%] | stability (in words) ([1]; 75% RH, 92.5% RH, 40° C.) | Purity % ([1]; 75% RH, 10 days) [%] | Purity % ([1]; 92.5% RH, 10 days) [%] | Purity % ([1]; Light, 10 days) [%] | D50 ([2]; granularity) [μm] | D90 ([2]; granularity) [μm] | angle of repose ([3]; measurement 1) [°] | angle of repose ([3]; measurement 2) [°] | angle of repose ([3]; measurement 3) [°] | granularity ([2]; granularity, second column under amorphous form) [μm] | Structure (SMILES) | granularity (in words) [2, 5] | angle of repose (in words) [3, 5] | effect of down-regulating ERα [4]
4 | 99.87 | 99.77 | 99.75 | good stability | 99.81 | 99.81 | 99.68 | 15.48 | 60.79 | 32.5 | 31.3 | 32.3 | – | C[C@@H]1Cc2c([nH]c3ccccc23)[C@@H](c2c(F)cc(/C=C/C(=O)O)cc2F)N1CC1(F)CC1 [crystal form B, (E)-3-(3,5-difluoro-4-((1R,3R)-2-((1-fluorocyclopropyl)methyl)-3-methyl-2,3,4,9-tetrahydro-1H-pyrido[3,4-b]indol-1-yl)phenyl)acrylic acid] | – | – | –
5 | 99.78 | 99.80 | 99.84 | good stability | 99.79 | 99.78 | 99.71 | 15.02 | 59.88 | 31.5 | 31.8 | 30.9 | – | C[C@@H]1Cc2c([nH]c3ccccc23)[C@@H](c2c(F)cc(/C=C/C(=O)O)cc2F)N1CC1(F)CC1 [crystal form C, (E)-3-(3,5-difluoro-4-((1R,3R)-2-((1-fluorocyclopropyl)methyl)-3-methyl-2,3,4,9-tetrahydro-1H-pyrido[3,4-b]indol-1-yl)phenyl)acrylic acid] | – | – | –
